Data on four compounds can be found in US20250145631A1, “HETEROCYCLIC COMPOUND ACTING ON G12D MUTANT KRAS PROTEIN” (Astellas Pharma Inc., priority 2022, published 2025).

Assay [1] deals with T1, KRAS G12D (Homo sapiens, UniProt P01116, G12D).
T1 construct: host or cells: AsPC-1 (human pancreatic cancer line)
As to the kind of experiment: KRAS degradation activity by Cell ELISA in AsPC-1 cells (Test Example 1). In kind it is cell-based. As to conditions: Cell ELISA; for Dmax: ASPC1, overnight treatment, read-out: Dmax (degradation rate at the concentration showing highest degradation); for DC50: overnight treatment, read-out: DC50 (50% degradation concentration of KRAS). The gist of the method: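 AsPC-1 cells (2.0×10^4/well) treated overnight with compounds at 10 μM–0.3 nM (10 points), then fixed, permeabilised and stained for KRAS G12D (800 nm) and β-actin (700 nm) by in-cell ELISA. KRAS signal normalised to β-actin, DMSO set as 0% and actin-only staining as 100%; DC50 from Sigmoid-Emax regression up to Dmax.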
(An ELISA detects its analyte on a solid surface through an enzyme-linked reagent.)

Assay [2] has as its system human G12D mutant KRAS-positive pancreatic cancer line AsPC-1. As to the kind of experiment: Non-anchorage-dependent cell growth inhibitory effect, spheroid 3D culture (Test Example 3). In kind it is cell-based. As to conditions: ASPC1, 144 h, AsPC-1 spheroid 3D culture, 6 days, CellTiter Glo 2.0, read-out: IC50 (non-anchorage-dependent cell growth inhibition). Summed up: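 AsPC-1 cells grown as spheroids in RPMI 1640 with 10% FBS at 37° C, 5% CO2, then exposed to compounds (10 μM to 0.3 nM final) for 6 days. Viability read by CellTiter Glo 2.0 luminescence. IC50 from Sigmoid-Emax regression with DMSO as 100% and cell-free medium as 0%.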
(In general: ATP-based viability assays read luminescence as a measure of living cells.)

T1 sequence (P01116 1-188 isoform P01116-2 G12D): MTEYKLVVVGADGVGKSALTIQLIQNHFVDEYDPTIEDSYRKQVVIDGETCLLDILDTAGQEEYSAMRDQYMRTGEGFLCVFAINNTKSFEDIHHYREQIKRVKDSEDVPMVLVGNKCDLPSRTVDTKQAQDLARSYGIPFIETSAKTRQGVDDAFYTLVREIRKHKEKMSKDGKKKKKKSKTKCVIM

In the case of `CO[C@@H](C)COc1cc(O[C@H]2CCNC2)c2cc(C3CC3)c(-c3c(C)c(F)cc4[nH]ncc34)c(OCc3ccc(C(=O)N4CCN(Cc5ccc6c(c5)n(C)c(=O)n6C5CCC(=O)NC5=O)C[C@@H]4C)cc3)c2n1` (stereo partly drawn) [Example 12, 3-[5-({(3S)-4-[4-({[6-cyclopropyl-7-(6-fluoro-5-methyl-1H-indazol-4-yl)-2-[(2S)-2-methoxypropoxy]-4-{[(3S)-pyrrolidin-3-yl]oxy}quinolin-8-yl]oxy}methyl)benzoyl]-3-methylpiperazin-1-yl}methyl)-3-methyl-2-oxo-2,3-dihydro-1H-benzimidazol-1-yl]piperidine-2,6-dione], in assay [1], the Dmax is 82% and the DC50 was 18 nM. Further, the IC50 in assay [2] amounted to 41 nM.
For `CO[C@@H](C)COc1nc(N2C[C@@H]3C[C@H]2CN3)c2cc(C3CC3)c(-c3c(C)c(F)cc4[nH]ncc34)c(OCc3ccc(C(=O)N4CCN(Cc5ccc6c(c5)n(C)c(=O)n6C5CCC(=O)NC5=O)C[C@@H]4C)cc3)c2n1` (stereo partly drawn) [Example 10, 3-(5-{[(3S)-4-{4-[({(7M)-6-cyclopropyl-4-[(1S,4S)-2,5-diazabicyclo[2.2.1]heptan-2-yl]-7-(6-fluoro-5-methyl-1H-indazol-4-yl)-2-[(2S)-2-methoxypropoxy]quinazolin-8-yl}oxy)methyl]benzoyl}-3-methylpiperazin-1-yl]methyl}-3-methyl-2-oxo-2,3-dihydro-1H-benzimidazol-1-yl)piperidine-2,6-dione], in that order: 86%, 8 nM and 15 nM.
On to `CO[C@@H](C)COc1cc(N2C[C@@H]3C[C@H]2CN3)c2cc(C3CC3)c(-c3c(C)c(F)cc4[nH]ncc34)c(OCc3ccc(C(=O)N4CCN(Cc5ccc6c(c5)n(C)c(=O)n6C5CCC(=O)NC5=O)C[C@@H]4C)cc3)c2n1` (stereo partly drawn) [Example 29, 3-(5-{[(3S)-4-{4-[({6-cyclopropyl-4-[(1S,4S)-2,5-diazabicyclo[2.2.1]heptan-2-yl]-7-(6-fluoro-5-methyl-1H-indazol-4-yl)-2-[(2S)-2-methoxypropoxy]quinolin-8-yl}oxy)methyl]benzoyl}-3-methylpiperazin-1-yl]methyl}-3-methyl-2-oxo-2,3-dihydro-1H-benzimidazol-1-yl)piperidine-2,6-dione], for which, in assay [1], the Dmax came out at 86% and the DC50 came to 22 nM. For the same compound, the IC50 in assay [2] is 33 nM.
Consider `Cc1c(F)cc2[nH]ncc2c1-c1c(C2CC2)cc2c(N3C[C@@H]4C[C@H]3CN4)nc(OC3CCOCC3)nc2c1OCc1ccc(C(=O)N2CCN(Cc3ccc4c(c3)n(C)c(=O)n4C3CCC(=O)NC3=O)C[C@@H]2C)cc1` (stereo partly drawn) [Example 8, 3-(5-{[(3S)-4-{4-[({(7M)-6-cyclopropyl-4-[(1S,4S)-2,5-diazabicyclo[2.2.1]heptan-2-yl]-7-(6-fluoro-5-methyl-1H-indazol-4-yl)-2-[(oxan-4-yl)oxy]quinazolin-8-yl}oxy)methyl]benzoyl}-3-methylpiperazin-1-yl]methyl}-3-methyl-2-oxo-2,3-dihydro-TH-benzimidazol-1-yl)piperidine-2,6-dione], for which, in assay [1], the Dmax was found to be 86% and the DC50 worked out at 13 nM. Further, the concentration for half-maximal inhibition (IC50) in assay [2] was determined as 27 nM.

What is called IC50 is the concentration that gives 50% inhibition.
